Measured values taken from patent US20230382934A1, “HIGH ENTROPY OXIDES AND METHODS OF SYNTHESIS AND USE THEREOF” (Auburn University, priority 2022, published 2023).

Columns and labels:
[1] = Stability of Fe(III) complexes by potentiometric pH titration (log KML); type: physicochemical; details: 25° C.
Description: (§1) The aqueous speciation of H4qp4 was previously determined. Those for its Fe(II) and Fe(III) complexes were assessed using a METROHM 765 Dosimat with a jacketed, airtight glass titration vessel. A Fisher Scientific Accumet Research AR15 pH meter was used to monitor the pH of the sample solutions during the titrations. The electrode was calibrated before each titration using commercially available standard solutions buffered to pH 4.0, 7.0, and 10.0. All samples were purged with argon prior to analysis and subsequently analyzed under an argon atmosphere at 25° C. to prevent carbonate contamination. All solution samples were prepared in solutions of 100 mM KCl in deionized Millipore water. The titrations investigating metal-ligand speciation were run with solutions that contained a 1:1 molar mixture of the ligand and FeCl2·(4H2O). Carbonate-free solutions of 0.10 M KOH and 0.10 M HCl were prepared using argon-saturated deionized Millipore water. The titration data were analyzed and fit to speciation models using the Hyperquad2006 program.

[2] = Metal ion exchange with Fe(II) followed by UV/vis; type: physicochemical
Description: FIG. 18, comprising FIG. 18A and FIG. 18B, depicts representative spectrophotometric spectra. FIG. 18A depicts spectrophotometric analysis of the reaction between 0.1 mM Fe(ClO4)2 and 0.1 mM 1 in MeCN at 298 K. The UV/vis spectra of the product formed from 0.1 mM Fe(ClO4)2 and 0.1 mM H4qp4 (blue) and that corresponding to 0.1 mM 1 are provided for comparison. FIG. 18B depicts spectrophotometric analysis of the reaction between 0.1 mM Fe(OTf)2 and 0.1 mM 1 in aqueous solutions containing 50 mM HEPES buffered to pH 7.00 at 298 K. The UV/vis spectrum of the product formed from 0.1 mM Fe(OTf)2 and 0.1 mM H4qp4 (blue) and that corresponding to 0.1 mM 1 are provided for comparison.

[3] = cited from earlier work; for pMn: pH 7.4, 1.0 mM Mn(II) and ligand, previously characterized complexes; for log KML of the Mn(II) complex: other reported Mn(II)-binding ligands
[4] = cited from earlier work; for increase of relaxivity upon oxidation by excess H2O2: recently reported sensors
[5] = Variable temperature 17O NMR, aquation number and water exchange of Mn(II) complexes; type: physicochemical; details: Example 1, Mn(II) complexes, 298 K
Description: FIG. 16 depicts plots of r2° as a function of temperature for 1 before and after oxidation by H2O2. Experimental conditions for pre-activated sensor (black squares): [1]=6.0 mM in 60 mM HEPES buffered to pH 7.4 and 10% (v/v) of 10% ^17OH2, B=9.4 T. Experimental conditions for activated sensor (red circles): [1]=2.5 mM in 60 mM MOPS buffered to pH 7.4 with 15 equiv. H2O2 and 10% (v/v) of 10% ^17OH2, B=9.4 T. NMR data acquisition began 15 min after the start of the oxidation reaction.
Aquation numbers (q) were calculated from the maximum ^17O transverse relaxivity, r2max°, and the equation: q=r2max°/510; Gale, Zhu, and Caravan previously used this relationship to estimate the inner-sphere hydration state of Mn(II) in coordination complexes (Gale, E. M. et al., 2013, J. Am. Chem. Soc., 135:18600). Relaxation rates were measured both for aqueous solutions containing Mn(II) complexes and for metal-free solutions buffered to pH 7.4. The linewidths at half-height of the signal were determined by a deconvolution procedure on the real part of the Fourier transformed spectra with a Lorentzian shape function in the data analysis module of Bruker Topspin 1.3® software. The measurements were performed with a commercial 5 mm Bruker broadband probe thermostat with a Bruker B-VT 3000 variable temperature unit. […]

[6] = Metal ion exchange with Zn(II) followed by 1H NMR; type: physicochemical; details: Example 2, 10 mM Fe(III) complex 3 and 20 mM Zn(ClO4)2, 48 h
Description: FIG. 19, comprising FIG. 19A and FIG. 19B, depicts representative NMR data. FIG. 19A depicts a reaction between 20 mM Zn(ClO4)2 and 10 mM 1 in CD3CN. The reaction equilibrated at 295 K for 24 h prior to data acquisition. FIG. 19B depicts the ^1H NMR spectrum of the product of the reaction between 10 mM Zn(ClO4)2 and 10 mM metal-free H4qp4.
FIG. 63, comprising FIG. 63A and FIG. 63B, depicts representative NMR data. FIG. 63A depicts the reaction between 20 mM Zn(ClO4)2 and 10 mM 3 in D20. The reaction equilibrated at 295 K for 48 h prior to data acquisition. FIG. 63B depicts a ^1H NMR spectrum of the product of the reaction between 10 mM Zn(ClO4)2 and 10 mM metal-free H4qp4 in D20.

[7] = T1-weighted relaxivity, 3 T clinical MRI scanner
Excerpt: All MRI data were collected at the Auburn University MRI Research Center on a Siemens Verio open-bore 3-T MRI clinical scanner. A 15-channel knee coil was used to simultaneously image 12-15 samples. The imaging procedure was identical to those used for similar studies (Zhang, Q. et al., 2011, Inorg. Chem. 50, 9365; Yu, M. et al., 2014, J. Am. Chem. Soc., 136:12836; Yu, M. et al., 2017, Inorg. Chem., 56:2812; Yu, M. et al., 2012, Inorg. Chem. 51:9153). An inversion recovery (IR) sequence was used that featured a non-selective adiabatic inversion pulse followed by a slice-selective gradient recalled echo (GRE) readout after a delay period corresponding to the inversion time (TI) (Bernstein, M. A. et al., 2004, Handbook of MRI Pulse Sequences; Haacke, E. M. et al., 1999, Magnetic Resonance Imaging: Physical Principles and Sequence Design). The GRE was a saturation readout, such that only one line of k-space was acquired per repetition time (TR), in order to maximize both signal strength and the accuracy of the T1 estimates. […]
Image analysis was performed using custom Matlab programs (Mathworks, Natick, MA). The initial TI=4.8 ms image was used as a baseline to determine circular region of interest (ROI) boundaries for each sample; from these, the mean pixel magnitudes for each ROI were calculated. […]

[8] = Example 1, previously reported Mn(II) complex 3; cited from earlier work
[9] = Stability of Fe(II) complexes by potentiometric pH titration (log KML); type: physicochemical; details: 25° C.
Description: as §1

In the case of CC#N.O=S(=O)([O-])C(F)(F)F.O=S(=O)([O-])C(F)(F)F.Oc1ccc(O)c(CN(CCN(Cc2ccccn2)Cc2ccccn2)Cc2ccccn2)c1.[Mn+2] [Complex 2], the “log KML” value [1] is listed as 38.84, the “Mn(II) displaced by an equimolar amount of Fe(II)” value ([2]; Example 1, MeCN, by 15 h) is listed as “approximately 10%” and the pMn [3] is listed as 7.25. The “increase of relaxivity upon oxidation by excess H2O2” value [4] was 10%.

With O=S(=O)([O-])C(F)(F)F.O=S(=O)([O-])C(F)(F)F.[Fe+3].[O-]c1ccc(O)cc1CN1CCCNCCN(Cc2cc(O)ccc2O)CCCNCC1 [Complex 3, (1-(2,5-dihydroxybenzyl)-8-(2,5-dihydroxybenzylalkoxide)-1,4,8,11-tetraazacyclotetradecane)iron(III) triflate] the “log KML” value [1] was 33.80, the “rate constant for water exchange (kex)” value [5] was 4.9e+06 s⁻¹ and the “Mn(II) displaced by an equimolar amount of Fe(II)” value ([2]; Example 1, by 3 h) was 80%. The “Zn(II) complex with H4qp4 formed” value [6] was “only trace amounts”, the r1 ([7]; Example 2, Fe(III) complex 3, 3 T, 50 mM HEPES pH 7.00, 298 K) was 0.87 mM⁻¹ s⁻¹ and the pMn [3] was 5.36. For the same molecule, the “r1 of pre-activated form” value [8] was 5.46 mM^−1 s^−.

In the case of Oc1ccc(O)c(CN(CCN(Cc2ccccn2)Cc2cc(O)ccc2O)Cc2ccccn2)c1.[Br-].[Br-].[Mn+2] [Complex 3], the “increase of relaxivity upon oxidation by excess H2O2” value [4] is given as 30%.

For O=C(O)CN1CCN(CC(=O)O)CCN(CC(=O)O)CCN(CC(=O)O)CC1 [DOTA^4−], the “log KML of the Mn(II) complex” value [3] is given as 19.89.

In the case of O=C([O-])CN(CC(=O)[O-])C1CCCCC1N(CC(=O)[O-])Cc1ccccn1.[Fe+2] (stereo not drawn) [Fe(II)-PyC3A], the “increase in relaxivity on oxidation to Fe(III)” value ([4]; 1.4 T) is given as 10 fold.

For NCCN1CCN(CC(=O)O)Cc2cccc(n2)CN(CC(=O)O)CC1 [PC2A-EA^2−], the “log KML of the Mn(II) complex” value [3] is given as 19.01.

For O=C(O)CN(CC(=O)O)C1CCCCC1N(CC(=O)O)Cc1ccccn1 (stereo not drawn) [PyC3A^3−], the “log KML of the Mn(II) complex” value [3] is given as 14.14.

In the case of O.O.O.O.O.O.[Mn+2] [[Mn(H2O)6]^2+], the T1-weighted relaxivity ([7]; Example 1, measured independently) is reported as 5.26 mM^−1 s^−.

For “(1-(2,5-dihydroxybenzyl)-8-(2,5-dihydroxybenzylalkoxide)-1,4,8,11-tetraazacyclotetradecane)iron(II) triflate [Complex 1]”, the “log KML” value [9] was 27.16.
